Reference: paper PMC4072508, “Genome-Wide Prediction and Validation of Peptides That Bind Human Prosurvival Bcl-2 Proteins” (PLoS Computational Biology, 2014)
Where two headings read alike, the source gives them in different places. Residues, ends and D or L forms follow the SMILES beside them. No end group written: not given here.

Tests used:
[1] = molecular target: T1, Mcl-1 (Homo sapiens, UniProt Q07820); details: read-out: Binder class, Mcl-1; S1 Bim variants, specific binding measured using yeast display; ref Dutta et al. (2010); cited from earlier work
T1 construct: myc-Mcl-1 SPOT array & FP; made in house
Source text: Negative control mutatio ...

[2] = molecular target: T2, Bcl-xL (Homo sapiens, UniProt Q07817); details: S1 Bim variants, specific binding measured using yeast display; ref Dutta et al. (2010); cited from earlier work
T2 construct: myc-Bcl-xL SPOT array & FP; made in house

[3] = molecular target: T1, Mcl-1; test: Fluorescence polarization direct binding
Method: (§1) Peptides were purified by reverse-phase HPLC using a C18 column and a linear water/acetonitrile gradient. We re-analyzed the purified peptide by mass spectrometry if there was not a single well-defined peak in HPLC chromatogram.
(§2) Fluorescence polarization (FP) assays were done at 25°C in assay buffer (20 mM NaPO4, 50 mM NaCl, 1 mM EDTA, 0.001% Triton X (v/v), pH 7.8). […] For all FP experiments, the total well volume was 120 µl. […] Anisotropy was measured using a Spectramax M5 plate reader from Molecular Devices.
(§3) Direct binding curves were fit using Pylab/Scipy/Optimize to a single-site binding model utilized previously.
(§4) ^1Best-fit KD values determined by combining all replicate titration curves and fitting to a direct binding model (see Methods). […] Values with an X followed by a number indicate the highest concentration (the number, in nM) for which signal was measured yet no binding was detected.

[4] = molecular target: T3, Bfl-1 (Homo sapiens, UniProt Q16548); test: Fluorescence polarization direct binding
T3 construct: myc- Bfl-1 SPOT array & FP; made in house
T3 sequence (Q16548 with tags, fused parts or gaps): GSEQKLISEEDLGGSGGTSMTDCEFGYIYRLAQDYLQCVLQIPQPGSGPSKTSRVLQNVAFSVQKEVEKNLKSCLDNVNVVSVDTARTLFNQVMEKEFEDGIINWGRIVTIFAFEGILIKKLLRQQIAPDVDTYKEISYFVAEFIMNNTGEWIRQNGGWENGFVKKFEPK
Method: as §1, §2, §3, §4

[5] = molecular target: T2, Bcl-xL; test: Fluorescence polarization direct binding
Method: as §1, §2, §3, §4

[6] = molecular target: T4, Bcl-w (Homo sapiens, UniProt Q92843, Q133R); test: Fluorescence polarization direct binding
T4 construct: myc-Bcl-w SPOT array & FP; made in house
T4 sequence (Q92843 with tags, fused parts or gaps Q133R): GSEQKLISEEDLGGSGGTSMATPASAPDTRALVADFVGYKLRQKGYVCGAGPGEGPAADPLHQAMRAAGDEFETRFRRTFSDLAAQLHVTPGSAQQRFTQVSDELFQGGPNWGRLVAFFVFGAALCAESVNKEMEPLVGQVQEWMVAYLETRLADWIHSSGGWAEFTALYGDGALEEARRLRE
Method: as §1, §2, §3, §4

[7] = molecular target: T5, Bcl-2 (Homo sapiens, UniProt P10415, DEL53-91); test: Fluorescence polarization direct binding
T5 construct: myc- Bcl-2 FP; made in house
Method: as §1, §2, §3, §4

[8] = Binder class, Mcl-1, benchmark classification of peptides newly characterized in this study
[9] = FP direct binding, 10 nM FAM-labeled peptide, receptor titrated, 25°C, pH 7.8, fit of all replicate titrations, X+number in a cell = highest concentration (nM) measured with no binding detected, given here as >, SPNS1 fit to raw fluorescence
[10] = FP direct binding, 10 nM FAM-labeled peptide, receptor titrated, 25°C, pH 7.8, fit of all replicate titrations, X+number in a cell = highest concentration (nM) measured with no binding detected, given here as >, SPNS1 fit to raw fluorescence, read-out: Best-fit KD, Bfl-1
[11] = benchmark classification of peptides newly characterized in this study, read-out: Binder class, Bfl-1
[12] = FP direct binding, 10 nM FAM-labeled peptide, receptor titrated, 25°C, pH 7.8, fit of all replicate titrations, X+number in a cell = highest concentration (nM) measured with no binding detected, given here as >, SPNS1 fit to raw fluorescence, read-out: Best-fit KD, Bcl-xL
[13] = benchmark classification of peptides newly characterized in this study, read-out: Binder class, Bcl-xL
[14] = FP direct binding, 10 nM FAM-labeled peptide, receptor titrated, 25°C, pH 7.8, fit of all replicate titrations, X+number in a cell = highest concentration (nM) measured with no binding detected, given here as >, SPNS1 fit to raw fluorescence, read-out: Best-fit KD, Bcl-w
[15] = benchmark classification of peptides newly characterized in this study, read-out: Binder class, Bcl-w
[16] = FP direct binding, 10 nM FAM-labeled peptide, receptor titrated, 25°C, pH 7.8, fit of all replicate titrations, X+number in a cell = highest concentration (nM) measured with no binding detected, given here as >, SPNS1 fit to raw fluorescence, read-out: Best-fit KD, Bcl-2
[17] = benchmark classification of peptides newly characterized in this study, read-out: Binder class, Bcl-2

T2 sequence (Q07817 with tags, fused parts or gaps): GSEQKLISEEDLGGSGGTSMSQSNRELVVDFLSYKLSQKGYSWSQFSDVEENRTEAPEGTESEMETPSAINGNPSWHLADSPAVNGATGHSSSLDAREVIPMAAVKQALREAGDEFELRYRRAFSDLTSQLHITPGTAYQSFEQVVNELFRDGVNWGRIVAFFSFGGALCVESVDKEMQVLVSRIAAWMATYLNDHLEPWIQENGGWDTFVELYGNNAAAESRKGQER
T1 sequence (Q07820 with tags, fused parts or gaps): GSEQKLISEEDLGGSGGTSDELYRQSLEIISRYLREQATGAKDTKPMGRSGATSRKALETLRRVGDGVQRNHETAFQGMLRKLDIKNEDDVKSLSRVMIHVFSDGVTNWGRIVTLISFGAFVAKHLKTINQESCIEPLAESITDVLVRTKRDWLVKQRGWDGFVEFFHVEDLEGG
T5 sequence (P10415 with tags, fused parts or gaps DEL53-91): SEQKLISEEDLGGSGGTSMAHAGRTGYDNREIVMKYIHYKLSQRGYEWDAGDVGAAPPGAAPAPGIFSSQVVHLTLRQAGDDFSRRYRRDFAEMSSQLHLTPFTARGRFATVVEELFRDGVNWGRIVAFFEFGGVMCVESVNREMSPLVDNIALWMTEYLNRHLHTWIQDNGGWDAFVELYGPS

Compound | Kd [3, 8] [nM] | Kd [3, 9] [nM] | Kd [4, 10] [nM] | Kd [4, 11] [nM] | Kd [5, 12] [nM] | Kd [5, 13] [nM] | Kd [6, 14] [nM] | Kd [6, 15] [nM] | Kd [7, 16] [nM] | Kd [7, 17] [nM] | other results
PEIWYAQEIGRYGDEFNAYYARR | – | – | – | – | – | – | – | – | – | – | Kd [1]: > 10000 nM; Binder class (Kd bin) [2]: < 1000 nM
PEIWVAQELERIGEEVNAYYARR | – | – | – | – | – | – | – | – | – | – | Kd [1]: < 1000 nM; Binder class (Kd bin) [2]: > 10000 nM
RLVQQSKALKELADELQERAQRP-NH2 [TRIM58] | > 10000 | – | – | – | – | – | – | – | – | – | Kd [3]: > 6070 nM; Kd [4]: > 4670 nM; Kd ([4]; Binder class, Bfl-1, benchmark classification of peptides newly characterized in this study): > 10000 nM; Kd [5]: 4550 nM; Kd ([5]; Binder class, Bcl-xL, benchmark classification of peptides newly characterized in this study): 1000 to 10000 nM; Kd [6]: 361 nM; Kd ([6]; Binder class, Bcl-w, benchmark classification of peptides newly characterized in this study): > 10000 nM; Kd [7]: 975 nM; Kd ([7]; Binder class, Bcl-2, benchmark classification of peptides newly characterized in this study): < 1000 nM
PEIWYAQEIRRFGDEFNAYYARR | – | – | – | – | – | – | – | – | – | – | Kd [1]: > 10000 nM; Binder class (Kd bin) [2]: < 1000 nM
PEIWVAQEIGRIGNEINAYYARR | – | – | – | – | – | – | – | – | – | – | Kd [1]: < 1000 nM; Binder class (Kd bin) [2]: > 10000 nM
AIRPRAVELRHLADDFINGNKKK-NH2 [MCF2L2] | > 10000 | > 4000 | > 3370 | > 10000 | 292 | < 1000 | 1120 | 1000 to 10000 | 60 | < 1000 | –
EVLAGPLAQRLSHIAEDVGRLVKKSR-NH2 [ARHGAP4] | < 1000 | > 2430 | > 5590 | > 10000 | 3060 | 1000 to 10000 | 749 | 1000 to 10000 | 6090 | 1000 to 10000 | –
RYRHGAPAEQLRHLADMLTTKWATLQ-NH2 [PLEKHH1] | > 10000 | 977 | > 5680 | > 10000 | 650 | < 1000 | 1400 | > 10000 | 1500 | < 1000 | –
AWGKFGGAFARYADEMKEIQERQ-NH2 [PURB] | > 10000 | > 4000 | > 4670 | > 10000 | > 100000 | > 10000 | > 1800 | > 10000 | 34 | < 1000 | –
GDSVLARMLRELGDSLRRPQLRL-NH2 [SLC19A1] | < 1000 | 22 | 182 | < 1000 | 1460 | 1000 to 10000 | 18 | < 1000 | 237 | < 1000 | –
ELQELARKLQELADASENLLTEN-NH2 [TXNDC11] | 1000 to 10000 | 2380 | > 10000 | > 10000 | 1490 | 1000 to 10000 | 249 | < 1000 | 86 | < 1000 | –
CC[C@H](C)[C@H](NC(=O)[C@H](CCC(=O)O)NC(=O)[C@H](C)NC(=O)[C@H](CO)NC(=O)[C@H](Cc1ccccc1)NC(=O)[C@H](CCC(N)=O)NC(=O)[C@H](CC(=O)O)NC(=O)[C@H](C)NC(=O)[C@H](CC(C)C)NC(=O)[C@H](Cc1c[nH]cn1)NC(=O)[C@H](CCCNC(=N)N)NC(=O)[C@H](CC(C)C)NC(=O)[C@H](CCC(=O)O)NC(=O)[C@H](CCC(N)=O)NC(=O)[C@H](C)NC(=O)[C@H](CCCCN)NC(=O)[C@@H]1CCCN1C(=O)[C@H](CCCNC(=N)N)NC(=O)[C@@H](NC(=O)[C@@H](N)CO)[C@@H](C)CC)C(=O)N[C@@H](C)C(=O)N[C@@H](CCCNC(=N)N)C(=O)N[C@@H](CCCNC(=N)N)C(N)=O [MCF2L] | > 10000 | > 4000 | > 4100 | > 10000 | 4 | < 1000 | 7 | < 1000 | 6 | < 1000 | Best-fit KD, Bcl-xL [5, 9]: bound tightly; Best-fit KD, Bcl-w [6, 9]: bound tightly; Best-fit KD, Bcl-2 [7, 9]: bound tightly

Now from value to compound, other results behind:

Kd [3, 8] [nM] | Kd [3, 9] [nM] | Kd [4, 10] [nM] | Kd [4, 11] [nM] | Kd [5, 12] [nM] | Kd [5, 13] [nM] | Kd [6, 14] [nM] | Kd [6, 15] [nM] | Kd [7, 16] [nM] | Kd [7, 17] [nM] | Compound | other results
< 1000 | 19 | 278 | < 1000 | 96 | < 1000 | 871 | < 1000 | 28 | < 1000 | SYMVLAPVFGYLGDRYNRKYLMA-NH2 [SPNS1] | –
1000 to 10000 | > 4000 | > 4000 | > 10000 | 1380 | 1000 to 10000 | > 100000 | 1000 to 10000 | 342 | 1000 to 10000 | APYYLSRNLKQQADIIFMPYNYL-NH2 [RTEL1] | –
1000 to 10000 | > 10000 | > 10000 | – | > 10000 | – | 3280 | – | 2560 | – | CC[C@H](C)[C@H](NC(=O)[C@@H](NC(=O)[C@H](CCSC)NC(=O)CNC(=O)[C@H](CCCNC(=N)N)NC(=O)[C@H](CO)NC(=O)[C@H](CCC(N)=O)NC(=O)[C@H](CC(C)C)NC(=O)[C@H](CC(C)C)NC(=O)[C@H](CO)NC(=O)CNC(=O)[C@H](CS)NC(=O)[C@@H](NC(=O)[C@H](CC(=O)O)NC(=O)[C@H](CCCNC(=N)N)NC(=O)[C@H](CCSC)NC(=O)[C@H](CC(C)C)NC(=O)[C@H](CCCCN)NC(=O)[C@H](CO)NC(=O)[C@@H](NC(=O)[C@H](CS)NC(=O)[C@H](CO)NC(=O)[C@H](CC(C)C)NC(=O)[C@H](CCC(N)=O)NC(=O)[C@H](CS)NC(=O)[C@@H](N)CC(C)C)C(C)C)C(C)C)C(C)C)C(N)=O [FBXO30] (H-LCQLSCVSKLMRDVCGSLLQSRGMVI-NH2) | –
